Patent publication EP0342577B1, “Use of dihydropyridine derivatives for the prophylaxis or treatment of cerebral circulation disorders” (YOSHITOMI PHARMACEUTICAL INDUSTRIES, LTD., priority 1988, dated 1989)

Key:
[1] = system: both common carotid arteries-ligated rats; test: Inhibitory effect on symptoms of both common carotid arteries-ligated rats; type: in vivo, Spontaneously hypertensive rats (SHR·SR); conditions: SHR·SR rats, oral, dose 0.1 mg/kg, given one hour before ligation; neural symptom score 0 (normal) to 4 (death) two hours after skin suture; control (None) 2.8
Protocol: Spontaneously hypertensive rats (SHR·SR; Japan Charles River Co.) were used for the experiment (9-10 rats per group).
The compound 2-2 of the present invention was orally administered forsively to the rats at a dose of 10 ml/kg. To the control group was administered 0.3% Tween® 80 solely at a dose of 10 ml/kg. One hour later, cervical part was incised and both common carotid arteries were ligated with a suture thread almost simultaneously. Two hours after skin suture, observation was made for their neural symptom and/or death. The results are expressed in five-rank scores below.

[2] = system: Cerebral blood flow amount; test: Duration time of cerebral hyperkinemic action: cerebral blood flow with the lapse of time; type: in vivo; set-up: unit not given here; conditions: dogs, intravenous, 30 µg/kg body weight
Protocol: (§1) Various dihydropyridine derivatives were intravenously administered to dogs (weighing 9 - 16 kg, 4 animals per group) at a dose of 1 - 100 µg/kg body weight. At the lapse of 1, 3, 5, 10, 30, 60, 90 and 120 minutes after the intravenous administration, the coronary blood flow amount and cerebral blood flow amount were measured, and the rates of increase in the blood flow amount were estimated.
(§2) Cerebral blood flow was measured by equipping the left vertebral artery with the probe of the electromagnetic flow meter, and recorded continuously on the polygraph.
By examining the rate of increase in cerebral blood flow by various dihydropyridine derivatives with the lapse of time, the duration of cerebral hyperkinemic action was studied.

[3] = system: Coronary blood flow amount; test: Selectivity in cerebral hyperkinemic action: coronary blood flow amount (electromagnetic flow meter, left coronary artery circumflex ramus); type: in vivo; conditions: dogs, intravenous; for Coronary blood flow amount ED200: dose at which the rate of increase is 200%
Protocol: (§3) The selectivity in cerebral hyperkinemic action was studied by examining the rates of increase in coronary blood flow amount and cerebral blood flow amount as to various dihydropyridine derivatives.
as §1
Coronary blood flow was measured by equipping the left coronary artery circumflex ramus with the probe of the electromagnetic flow meter, and recorded on the polygraph.
(§4) The ED200 (µg/kg body weight) indicates the dose at which the rate of increase is 200%.

[4] = system: Cerebral blood flow amount; test: Selectivity in cerebral hyperkinemic action: cerebral blood flow amount (electromagnetic flow meter, left vertebral artery); type: in vivo; conditions: dogs, intravenous; for Cerebral blood flow amount ED200: dose at which the rate of increase is 200%
Protocol: as §3, §1, §2, §4

Q: Which results are given for `COC(=O)C1=C(C)NC(C)=C(C(=O)OCCc2ccc(N3CCN(C(c4ccccc4)c4ccccc4)CC3)cc2)C1c1cccc([N+](=O)[O-])c1` (stereo not drawn) [Compound 2-2, 2-[p-(4-Benzhydrylpiperazino)phenyl]ethyl methyl 2,6-dimethyl-4-(3-nitrophenyl)-1,4-dihydropyridine-3,5-dicarboxylate]?
A: Average score [1]: 1.7; Rate of increase in cerebral blood flow amount ([2]; 5 min after administration): 137; Rate of increase in cerebral blood flow amount ([2]; 10 min after administration): 170; Rate of increase in cerebral blood flow amount ([2]; 30 min after administration): 285; Rate of increase in cerebral blood flow amount ([2]; 60 min after administration): 300; Rate of increase in cerebral blood flow amount ([2]; 120 min after administration): 237; Coronary blood flow amount Increase rate (%) ([3]; dose 10 µg/kg body weight): 125%; Coronary blood flow amount Increase rate (%) ([3]; dose 30 µg/kg body weight): 174%; Coronary blood flow amount Increase rate (%) ([3]; dose 100 µg/kg body weight): 207%; Coronary blood flow amount ED200 [3]: 75 µg/kg body weight; Cerebral blood flow amount Increase rate (%) ([4]; dose 10 µg/kg body weight): 197%; Cerebral blood flow amount Increase rate (%) ([4]; dose 30 µg/kg body weight): 301%; Cerebral blood flow amount Increase rate (%) ([4]; dose 100 µg/kg body weight): 433%; Cerebral blood flow amount ED200 [4]: 11 µg/kg body weight

Q: Which “Rate of increase in cerebral blood flow amount” value (shortened to “Rate of increase”) ([2]; 5 min after administration) does the source give for `COCCOC(=O)C1=C(C)NC(C)=C(C(=O)OC(C)C)C1c1cccc([N+](=O)[O-])c1` (stereo not drawn) [Nimodipine, reference compound] here?
A: The value was 163.

Q: And the “Rate of increase” value ([2]; 10 min after administration)?
A: Its value is 152.

Q: What about the “Rate of increase” value ([2]; 30 min after administration) of the same molecule?
A: The value was 129.

Q: And the “Rate of increase” value ([2]; 60 min after administration)?
A: The value was 113.

Q: And the “Coronary blood flow amount Increase rate (%)” value ([3]; dose 1 µg/kg body weight)?
A: Its value is 125%.

Q: And the “Coronary blood flow amount Increase rate (%)” value ([3]; dose 3 µg/kg body weight)?
A: The value was 141%.

Q: What about the “Coronary blood flow amount Increase rate (%)” value ([3]; dose 10 µg/kg body weight) of the same molecule?
A: The value was 191%.

Q: And the “Coronary blood flow amount ED200” value [3]?
A: Its value is 16 µg/kg body weight.

Q: And the “Cerebral blood flow amount Increase rate (%)” value ([4]; dose 1 µg/kg body weight)?
A: The value was 146%.

Q: And the “Cerebral blood flow amount Increase rate (%)” value ([4]; dose 3 µg/kg body weight)?
A: The value was 167%.

Q: What about the “Cerebral blood flow amount Increase rate (%)” value ([4]; dose 10 µg/kg body weight) of the same molecule?
A: Its value is 196%.

Q: And the “Cerebral blood flow amount ED200” value [4]?
A: The value was 13 µg/kg body weight.

Q: With `COC(=O)C1=C(C)NC(C)=C(C(=O)OCCc2ccc(N3CCN(C(c4ccccc4)c4ccccc4)CC3)cc2)C1c1cc(C#N)ccn1` (stereo not drawn) [Compound 1-2, 2-[p-(4-Benzhydrylpiperazino)phenyl]ethyl methyl 2,6-dimethyl-4-(4-cyano-2-pyridyl)-1,4-dihydropyridine-3,5-dicarboxylate] as the molecule, how does the “Rate of increase” value ([2]; 5 min after administration) read?
A: The value was 183.

Q: What about the “Rate of increase” value ([2]; 10 min after administration) of the same molecule?
A: The value was 222.

Q: And the “Rate of increase” value ([2]; 30 min after administration)?
A: Its value is 190.

Q: What about the “Rate of increase” value ([2]; 60 min after administration) of the same molecule?
A: Its value is 151.

Q: And the “Rate of increase” value ([2]; 120 min after administration)?
A: Its value is 132.

Q: And the “Coronary blood flow amount Increase rate (%)” value ([3]; dose 10 µg/kg body weight)?
A: Its value is 131%.

Q: What about the “Coronary blood flow amount Increase rate (%)” value ([3]; dose 30 µg/kg body weight) of the same molecule?
A: Its value is 156%.

Q: And the “Coronary blood flow amount Increase rate (%)” value ([3]; dose 100 µg/kg body weight)?
A: Its value is 246%.

Q: What about the “Coronary blood flow amount ED200” value [3] of the same molecule?
A: Its value is 48 µg/kg body weight.

Q: What about the “Cerebral blood flow amount Increase rate (%)” value ([4]; dose 10 µg/kg body weight) of the same molecule?
A: Its value is 186%.

Q: What about the “Cerebral blood flow amount Increase rate (%)” value ([4]; dose 30 µg/kg body weight) of the same molecule?
A: The value was 223%.

Q: What about the “Cerebral blood flow amount Increase rate (%)” value ([4]; dose 100 µg/kg body weight) of the same molecule?
A: Its value is 385%.

Q: And the “Cerebral blood flow amount ED200” value [4]?
A: The value was 15 µg/kg body weight.

Q: Which “Rate of increase” value ([2]; 5 min after administration) does the source give for `COC(=O)C1=C(C)NC(C)=C(C(=O)OCCN(C)Cc2ccccc2)C1c1cccc([N+](=O)[O-])c1` (stereo not drawn) [Nicardipine, reference compound] here?
A: The value was 237.

Q: What about the “Rate of increase” value ([2]; 10 min after administration) of the same molecule?
A: The value was 189.

Q: What about the “Rate of increase” value ([2]; 30 min after administration) of the same molecule?
A: Its value is 129.

Q: And the “Rate of increase” value ([2]; 60 min after administration)?
A: The value was 109.

Q: And the “Coronary blood flow amount Increase rate (%)” value ([3]; dose 3 µg/kg body weight)?
A: The value was 154%.

Q: And the “Coronary blood flow amount Increase rate (%)” value ([3]; dose 10 µg/kg body weight)?
A: The value was 206%.

Q: And the “Coronary blood flow amount Increase rate (%)” value ([3]; dose 30 µg/kg body weight)?
A: The value was 240%.

Q: And the “Coronary blood flow amount ED200” value [3]?
A: The value was 9.7 µg/kg body weight.

Q: And the “Cerebral blood flow amount Increase rate (%)” value ([4]; dose 3 µg/kg body weight)?
A: Its value is 165%.

Q: And the “Cerebral blood flow amount Increase rate (%)” value ([4]; dose 10 µg/kg body weight)?
A: Its value is 197%.

Q: What about the “Cerebral blood flow amount Increase rate (%)” value ([4]; dose 30 µg/kg body weight) of the same molecule?
A: Its value is 238%.

Q: And the “Cerebral blood flow amount ED200” value [4]?
A: The value was 9.7 µg/kg body weight.
